The source of these data is ChEMBL document CHEMBL1201862, “PubChem BioAssay data set” (2004).

Among the test systems are SW-620; RPMI-8226; SNB-75; NCI-H460; SK-MEL-2; 786-0; M14; U-251; UO-31; HCT-15; PC-3; OVCAR-5; SF-539; COLO 205; A549; SK-MEL-5; SR; HCT-116; OVCAR-4; A498.
Common to all, as to assay: NCI anticancer screen, dose series, 48 h

Each structure is given as a SMILES string.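 The compound was tested at five concentrations on cells cultured in 96-well plates, with a 48-hour exposure period. GI50 marks 50% less growth.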 Calls of active or inactive are those of the source. No stated cut-off is given here; in the data, active = GI50 up to about 1.1 µM and inactive = higher.

For the compound `COC(=O)c1ccc(COC(=O)N2C=CCC2C(=O)O)cc1` (stereo not given), the GI50 in the experiment with SW-620, in the experiment with RPMI-8226, with SNB-75, in the experiment with NCI-H460, with SK-MEL-2 and with 786-0 was > 100 µM (inactive) throughout. Besides, the GI50 with M14 was > 100 µM (inactive); with U-251, > 100 µM (inactive); in the experiment on UO-31 it was > 100 µM (inactive); in the experiment with HCT-15 it was above 100 µM; in the experiment with PC-3, > 100 µM (inactive); with OVCAR-5 it was > 100 µM (inactive). In addition, the GI50 with SF-539, in the experiment with COLO 205, in the experiment with A549, with SK-MEL-5 and with SR was > 100 µM (inactive) in each case.
Take `COC(=O)[C@]1(C)CC[C@]2(C)CC[C@]3(C)C4[C@H]5Oc6c(cc7c(c6C)CCC6[C@@]7(C)CC[C@@]7(C)C8[C@](C)(CCC[C@@]8(C)C(=O)OC)CC[C@]67C)O[C@H]5c5c(cc6c(c5C)O[C@@]5(C)C7=CC=C8[C@@](C)(CC[C@@]9(C)[C@@H]%10C[C@](C)(C(=O)OC)CC[C@]%10(C)CC[C@]89C)C7=CC(=O)[C@@]5(O)O6)[C@]4(C)CC[C@@]3(C)C2C1` (stereo not given in full): the GI50 is 2.53 µM (inactive) with SW-620; 2.79 µM (inactive) in the experiment with SNB-75; 8.91 µM (inactive) in the experiment with NCI-H460; 3.01 µM (inactive) in the experiment on SK-MEL-2; 1.86 µM (inactive) in the experiment on 786-0; 4.01 µM (inactive) in the experiment with M14. Moreover, the GI50 was 2.34 µM (inactive) in the experiment on HCT-116; 7.59 µM (inactive) in the experiment with OVCAR-4; 3.66 µM (inactive) in the experiment with U-251; 2.52 µM (inactive) in the experiment with UO-31; 3.45 µM in the experiment with HCT-15; 4.15 µM (inactive) with PC-3. The GI50 with OVCAR-5 is 9.79 µM (inactive); in the experiment on SF-539, 2.63 µM (inactive); with A498 it was > 12.5 µM (inactive); in the experiment on COLO 205 it was 6.35 µM (inactive); with A549, > 12.5 µM (inactive); with SK-MEL-5 it was 3.69 µM (inactive).
With `CC(=O)c1cc2c(s1)C(=O)c1ccsc1C2=O`, the GI50 was 0.275 µM (active) in the experiment with SW-620; 3.85 µM (inactive) with RPMI-8226; 0.192 µM (active) in the experiment with SNB-75; 0.621 µM (active) in the experiment on SK-MEL-2; 1.92 µM (inactive) with 786-0; 0.28 µM (active) in the experiment on M14. For the same compound, the GI50 in the experiment on HCT-116 was 0.292 µM (active); in the experiment with OVCAR-4, 1.26 µM (inactive); in the experiment with U-251, 0.233 µM (active); with UO-31 it was 0.243 µM (active); in the experiment on HCT-15, 0.179 µM; with PC-3, 0.458 µM (active). Moreover, the GI50 in the experiment with OVCAR-5 is 0.74 µM (active); with SF-539, 0.27 µM (active); in the experiment on A498 it was 7.24 µM (inactive); with COLO 205, 19.1 µM (inactive); in the experiment on A549, 2.05 µM (inactive); with SK-MEL-5, 0.0559 µM (active).
Regarding `N#CCCN(CCN(CCN(C(=O)Nc1ccccc1)c1ccccc1)C(=O)Nc1ccccc1)C(=O)Nc1ccccc1`, the GI50 was > 100 µM (inactive) with SW-620; 6.47 µM (inactive) with RPMI-8226; 67.6 µM (inactive) in the experiment on SNB-75; > 100 µM (inactive) in the experiment on SK-MEL-2; > 100 µM (inactive) with 786-0; > 100 µM (inactive) in the experiment with M14. The GI50 was > 100 µM (inactive) in the experiment with HCT-116; > 100 µM (inactive) with OVCAR-4; 5.7 µM (inactive) in the experiment with U-251; > 100 µM (inactive) in the experiment on UO-31; above 100 µM in the experiment with HCT-15; 6.85 µM (inactive) with PC-3. For the same compound, the GI50 with OVCAR-5, with SF-539, in the experiment with A498, in the experiment on COLO 205, in the experiment on A549 and in the experiment on SK-MEL-5 was > 100 µM (inactive) each time.
With `Cc1cc2c(cc1Cl)SC(N/N=C(\N)c1ccc(Cl)cc1)=NS2(=O)=O`, the GI50 was 25.8 µM (inactive) in the experiment with SW-620; 74.5 µM (inactive) with SNB-75; 52.7 µM (inactive) in the experiment with NCI-H460; 90.8 µM (inactive) with 786-0; 81.5 µM (inactive) in the experiment with M14; 46.2 µM (inactive) in the experiment on HCT-116. The GI50 in the experiment on OVCAR-4 was 75.2 µM (inactive); with U-251, 44.7 µM (inactive); in the experiment with UO-31 it was 42.7 µM (inactive); in the experiment on HCT-15 it was 46.5 µM; in the experiment on PC-3, 41 µM (inactive); in the experiment on OVCAR-5, > 100 µM (inactive). Further, the GI50 was 32.3 µM (inactive) in the experiment on SF-539; 32.9 µM (inactive) in the experiment on A498; 42.3 µM (inactive) in the experiment with COLO 205; 96.6 µM (inactive) with A549; > 100 µM (inactive) in the experiment with SK-MEL-5.
As to `C[n+]1c(-c2ccc(/C=N/NC(=O)C(=O)N/N=C/c3ccc(-c4cn5ccsc5[n+]4C)cc3)cc2)cn2ccsc21`, the GI50 with SW-620 was > 100 µM (inactive); in the experiment on RPMI-8226, 82.6 µM (inactive); in the experiment with SNB-75 it was > 100 µM (inactive); in the experiment with NCI-H460, > 100 µM (inactive); in the experiment with 786-0, > 100 µM (inactive); in the experiment with M14, > 100 µM (inactive). Moreover, the GI50 in the experiment on HCT-116 was 92.5 µM (inactive); with OVCAR-4 it was > 100 µM (inactive); with U-251, > 100 µM (inactive); in the experiment on UO-31 it was > 100 µM (inactive); in the experiment with HCT-15, above 100 µM; with PC-3 it was > 100 µM (inactive). Besides, the GI50 with OVCAR-5, in the experiment on SF-539, in the experiment with COLO 205, with A549, in the experiment with SK-MEL-5 and in the experiment with SR was > 100 µM (inactive) in each case.
For the compound `CC1=CC(=O)N(n2c(-c3ccccc3)n[nH]c2=O)C1=O`, the GI50 in the experiment on SW-620, in the experiment with RPMI-8226, in the experiment on SNB-75, with NCI-H460, in the experiment with SK-MEL-2 and in the experiment on 786-0 was > 100 µM (inactive) each time. Moreover, the GI50 in the experiment with M14 was > 100 µM (inactive); with HCT-116, > 100 µM (inactive); in the experiment with OVCAR-4 it was > 100 µM (inactive); in the experiment on U-251, > 100 µM (inactive); in the experiment with UO-31, > 100 µM (inactive); in the experiment on HCT-15 it was above 100 µM. For the same compound, the GI50 in the experiment with PC-3, with OVCAR-5, in the experiment on SF-539, in the experiment on COLO 205, with A549 and with SK-MEL-5 was > 100 µM (inactive) in each case.
Turning to `CC(=O)OC1CC2C(C)(C)C(=O)C=C[C@]2(C)C2CCC3(C)C(c4ccoc4)[C@@H](O)[C@H]4O[C@]43[C@]12C` (stereo not given in full), the GI50 in the experiment with SW-620 is 18.9 µM (inactive); in the experiment on RPMI-8226 it was 18.4 µM (inactive); with SNB-75 it was 24 µM (inactive); in the experiment with NCI-H460, 19.3 µM (inactive); with SK-MEL-2, 18.9 µM (inactive); in the experiment with 786-0 it was 17.5 µM (inactive). Also, the GI50 with M14 is 19.9 µM (inactive); with HCT-116, 24.9 µM (inactive); in the experiment on OVCAR-4, 19.7 µM (inactive); in the experiment on U-251, 14.6 µM (inactive); with UO-31 it was 17.8 µM (inactive); with HCT-15 it was 17.4 µM. Moreover, the GI50 was 25.9 µM (inactive) with OVCAR-5; 17.9 µM (inactive) with SF-539; 29.6 µM (inactive) in the experiment with A498; 19.8 µM (inactive) with COLO 205; 36 µM (inactive) with A549; 17.5 µM (inactive) in the experiment on SK-MEL-5. Further, the GI50 in the experiment on SR was 16.1 µM (inactive).
`CCCC[C@H]1CCN2C[C@@H](O)[C@@H](O)[C@H]2[C@@H]1O`: the GI50 in the experiment on SW-620, in the experiment with RPMI-8226, in the experiment with SNB-75, with NCI-H460, in the experiment with SK-MEL-2 and in the experiment with 786-0 was > 100 µM (inactive) throughout. In addition, the GI50 in the experiment on M14 is > 100 µM (inactive); in the experiment with HCT-116, > 100 µM (inactive); in the experiment on OVCAR-4, > 100 µM (inactive); in the experiment on U-251 it was > 100 µM (inactive); in the experiment on UO-31 it was > 100 µM (inactive); with HCT-15 it was above 100 µM. Besides, the GI50 in the experiment on PC-3, in the experiment on OVCAR-5, with SF-539, in the experiment with A498, in the experiment on COLO 205 and with A549 was > 100 µM (inactive) in each case. Further, the GI50 in the experiment on SK-MEL-5 was > 100 µM (inactive).
On to `N/N=C1\C(=O)N(C2CCCCC2)C(=O)C1C(=O)NC1CCCCC1` (stereo not given), for which the GI50 in the experiment on SW-620 is > 100 µM (inactive); in the experiment with RPMI-8226, > 100 µM (inactive); in the experiment with SNB-75, 56.4 µM (inactive); with NCI-H460 it was > 100 µM (inactive); in the experiment with SK-MEL-2, 28.9 µM (inactive); in the experiment with 786-0, > 100 µM (inactive). Further, the GI50 with M14 is > 100 µM (inactive); with HCT-116, > 100 µM (inactive); in the experiment with OVCAR-4, > 100 µM (inactive); with U-251, > 100 µM (inactive); in the experiment on UO-31, > 100 µM (inactive); with HCT-15, above 100 µM. The GI50 with OVCAR-5 was > 100 µM (inactive); in the experiment on SF-539 it was > 100 µM (inactive); in the experiment with A498, > 100 µM (inactive); in the experiment on COLO 205, > 100 µM (inactive); in the experiment on A549 it was > 100 µM (inactive); in the experiment with SK-MEL-5 it was 33.7 µM (inactive). For the same compound, the GI50 in the experiment on SR is > 100 µM (inactive).
Regarding `COC(=O)C(CCS(=O)(=O)CC(=O)C(=O)Nc1cccc(C(C)=O)c1)C(=O)OC`, the GI50 is > 100 µM (inactive) in the experiment with SW-620; > 47.2 µM (inactive) in the experiment with RPMI-8226; > 100 µM (inactive) in the experiment on SNB-75; > 53 µM (inactive) in the experiment with NCI-H460; > 100 µM (inactive) in the experiment with SK-MEL-2; > 100 µM (inactive) in the experiment on 786-0. Moreover, the GI50 in the experiment with M14 is > 100 µM (inactive); with HCT-116, > 56.6 µM (inactive); in the experiment on OVCAR-4 it was > 100 µM (inactive); in the experiment with U-251 it was > 89.7 µM (inactive); in the experiment on UO-31, > 100 µM (inactive); in the experiment on HCT-15, above 72.1 µM. The GI50 with OVCAR-5 was > 100 µM (inactive); in the experiment on SF-539, > 100 µM (inactive); in the experiment on A498, > 100 µM (inactive); in the experiment on COLO 205, > 54.5 µM (inactive); with A549, > 100 µM (inactive); in the experiment on SK-MEL-5, > 100 µM (inactive). In the experiment on SR, the GI50 was 20.9 µM (inactive).
